Laboratory results: paper PMC7337102 (ACS infectious diseases, 2019)

Biological target: Eis_wt (Mycobacterium tuberculosis, UniProt P9WFK7)
Format: biochemical
Settings: KAN as substrate

Chain of Eis_wt (P9WFK7 whole entry): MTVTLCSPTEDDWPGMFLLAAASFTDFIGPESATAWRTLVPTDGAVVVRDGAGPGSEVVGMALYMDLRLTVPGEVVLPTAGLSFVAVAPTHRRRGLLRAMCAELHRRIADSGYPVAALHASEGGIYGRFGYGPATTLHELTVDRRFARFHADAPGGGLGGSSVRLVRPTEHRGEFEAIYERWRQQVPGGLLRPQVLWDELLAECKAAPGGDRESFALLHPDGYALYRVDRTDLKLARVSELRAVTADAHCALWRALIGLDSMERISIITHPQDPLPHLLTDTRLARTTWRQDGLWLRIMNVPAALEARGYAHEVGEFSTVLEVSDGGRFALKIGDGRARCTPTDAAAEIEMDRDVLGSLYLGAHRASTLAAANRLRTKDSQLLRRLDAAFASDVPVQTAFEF

SMILES: NC[C@H]1O[C@H](O[C@H]2[C@H](O)[C@@H](O[C@H]3O[C@H](CO)[C@@H](O)[C@H](N)[C@H]3O)[C@H](N)C[C@@H]2N)[C@H](O)[C@@H](O)[C@@H]1O [KAN, kanamycin]
- kcat: 0.238 ± 0.0317 s⁻¹
- Km (average for three sets of assays): 551 ± 134 µM
